Molecular target: GCN2 (Homo sapiens (Human), UniProt Q9P2K8)
Test: GCN2 Biochemical Assay (TR-FRET, GFP-eIF2S1 substrate phosphorylation)
Details: read-out: IC50 (GCN2 Inhibitory Activity)
How it was run: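 TR-FRET readout (Ex 340, Em 490/520 nm) after 2–3 h with Tb-labelled phospho-eIF2S1 antibody in stop mix, following a 70 min room-temperature kinase step. Reaction: in-house GCN2, GFP-eIF2S1, ATP, tRNA in Tris pH 7.5 (2× stocks 1.6 nM, 50 nM, 0.2 mM); compounds tested at 10 concentrations, with a phospho-substrate artifact counter-plate.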

Sequence of GCN2 (Q9P2K8 whole entry): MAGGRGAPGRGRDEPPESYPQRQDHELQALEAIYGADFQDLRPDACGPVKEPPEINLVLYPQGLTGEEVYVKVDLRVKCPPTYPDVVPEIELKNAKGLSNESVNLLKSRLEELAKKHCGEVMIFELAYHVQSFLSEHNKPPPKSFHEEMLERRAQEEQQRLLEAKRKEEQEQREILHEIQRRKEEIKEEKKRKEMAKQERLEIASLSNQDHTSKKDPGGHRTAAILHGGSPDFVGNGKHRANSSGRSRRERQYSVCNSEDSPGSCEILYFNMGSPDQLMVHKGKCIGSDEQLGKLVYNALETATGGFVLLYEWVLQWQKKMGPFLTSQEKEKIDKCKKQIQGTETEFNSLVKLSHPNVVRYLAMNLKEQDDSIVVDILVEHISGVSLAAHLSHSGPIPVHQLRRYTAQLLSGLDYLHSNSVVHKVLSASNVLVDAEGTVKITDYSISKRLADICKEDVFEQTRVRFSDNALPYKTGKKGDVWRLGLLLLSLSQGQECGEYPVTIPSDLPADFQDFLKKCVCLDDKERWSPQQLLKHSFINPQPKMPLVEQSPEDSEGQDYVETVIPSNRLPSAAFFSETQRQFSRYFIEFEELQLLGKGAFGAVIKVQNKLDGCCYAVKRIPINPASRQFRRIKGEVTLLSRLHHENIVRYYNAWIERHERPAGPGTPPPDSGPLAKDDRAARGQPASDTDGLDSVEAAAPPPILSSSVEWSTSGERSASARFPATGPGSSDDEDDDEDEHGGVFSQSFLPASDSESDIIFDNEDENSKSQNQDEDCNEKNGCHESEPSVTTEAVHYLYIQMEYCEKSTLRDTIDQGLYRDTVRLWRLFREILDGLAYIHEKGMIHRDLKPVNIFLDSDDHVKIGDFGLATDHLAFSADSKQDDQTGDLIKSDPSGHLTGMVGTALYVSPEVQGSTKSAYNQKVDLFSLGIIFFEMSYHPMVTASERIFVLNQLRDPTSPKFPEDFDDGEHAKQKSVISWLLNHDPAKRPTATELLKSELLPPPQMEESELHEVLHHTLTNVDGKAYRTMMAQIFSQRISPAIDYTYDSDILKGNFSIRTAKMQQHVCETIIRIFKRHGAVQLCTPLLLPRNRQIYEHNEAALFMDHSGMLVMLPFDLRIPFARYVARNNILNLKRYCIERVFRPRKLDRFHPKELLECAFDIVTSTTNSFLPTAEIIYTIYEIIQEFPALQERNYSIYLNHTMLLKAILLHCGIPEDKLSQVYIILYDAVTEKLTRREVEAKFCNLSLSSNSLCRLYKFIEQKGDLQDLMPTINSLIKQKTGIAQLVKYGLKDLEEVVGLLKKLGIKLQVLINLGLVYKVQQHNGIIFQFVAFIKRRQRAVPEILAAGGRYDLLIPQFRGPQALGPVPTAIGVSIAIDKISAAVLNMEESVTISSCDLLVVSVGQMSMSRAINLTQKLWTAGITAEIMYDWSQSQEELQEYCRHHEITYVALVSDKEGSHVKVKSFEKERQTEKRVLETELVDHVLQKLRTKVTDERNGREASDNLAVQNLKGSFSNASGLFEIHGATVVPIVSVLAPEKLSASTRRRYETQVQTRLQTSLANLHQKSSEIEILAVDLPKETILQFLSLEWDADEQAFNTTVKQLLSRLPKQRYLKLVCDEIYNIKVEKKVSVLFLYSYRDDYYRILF

Compound	IC50
Cc1cnc(Nc2cc(C)n(C)n2)nc1-c1c[nH]c2c(N3Cc4c(NC(=O)C5CCCC(C)C5)cccc4C3=O)cccc12 (stereo not shown) [Example 329, N-(2-(3-(2-((1,5-dimethyl-1H-pyrazol-3-yl)amino)-5-methylpyrimidin-4-yl)-1H-indol-7-yl)-1-oxoisoindolin-4-yl)-3-methylcyclohexane-1-carboxamide]	0.1 to 1 µM
Cc1cnc(Nc2cc(C)n(C)n2)nc1-c1c[nH]c2c(N3Cc4cccc(NS(=O)(=O)c5ccccc5)c4C3=O)cccc12 [Example 340, N-(2-(3-(2-((1,5-dimethyl-1H-pyrazol-3-yl)amino)-5-methylpyrimidin-4-yl)-1H-indol-7-yl)-3-oxoisoindolin-4-yl)benzenesulfonamide]	0.1 to 1 µM
Cc1cnc(Nc2cc(C)n(C)n2)nc1-c1c[nH]c2c(N3Cc4cccc(Nc5ccccc5)c4C3=O)cccc12 [Example 346, 2-(3-(2-((1,5-dimethyl-1H-pyrazol-3-yl)amino)-5-methylpyrimidin-4-yl)-1H-indol-7-yl)-7-(phenylamino)isoindolin-1-one]	0.1 to 1 µM
Cc1cnc(Nc2cc(C)n(C)n2)nc1-c1c[nH]c2c(N3Cc4cccc(N5CCN(C)CC5)c4C3=O)cccc12 [Example 348, 2-(3-(2-((1,5-dimethyl-1H-pyrazol-3-yl)amino)-5-methylpyrimidin-4-yl)-1H-indol-7-yl)-7-(4-methylpiperazin-1-yl)isoindolin-1-one]	0.01 to 0.1 µM
Cc1cnc(Nc2cc(C)n(C)n2)nc1-c1c[nH]c2c(N3Cc4cccc(N(C)C)c4C3=O)cccc12 [Example 349, 2-(3-(2-((1,5-dimethyl-1H-pyrazol-3-yl)amino)-5-methylpyrimidin-4-yl)-1H-indol-7-yl)-7-(dimethylamino)isoindolin-1-one]	0.01 to 0.1 µM
Cc1cnc(Nc2cc(C)n(C)n2)nc1-c1c[nH]c2c(N3Cc4cccc(NCc5ccccc5)c4C3=O)cccc12 [Example 350, 7-(benzylamino)-2-(3-(2-((1,5-dimethyl-1H-pyrazol-3-yl)amino)-5-methylpyrimidin-4-yl)-1H-indol-7-yl)isoindolin-1-one]	0.1 to 1 µM
Cc1cnc(Nc2cc(C)n(C)n2)nc1-c1c[nH]c2c(N3Cc4cccc(NCC5CC5)c4C3=O)cccc12 [Example 351, 7-((cyclopropylmethyl)amino)-2-(3-(2-((1,5-dimethyl-1H-pyrazol-3-yl)amino)-5-methylpyrimidin-4-yl)-1H-indol-7-yl)isoindolin-1-one]	0.1 to 1 µM
Cc1cnc(Nc2cc(C)n(C)n2)nc1-c1c[nH]c2c(N3Cc4c(NCC5CC5)cccc4C3=O)cccc12 [Example 353, 4-((cyclopropylmethyl)amino)-2-(3-(2-((1,5-dimethyl-1H-pyrazol-3-yl)amino)-5-methylpyrimidin-4-yl)-1H-indol-7-yl)isoindolin-1-one]	0.01 to 0.1 µM
Cc1cnc(Nc2cc(C)n(C)n2)nc1-c1c[nH]c2c(N3Cc4c(NCc5ccccc5)cccc4C3=O)cccc12 [Example 354, 4-(benzylamino)-2-(3-(2-((1,5-dimethyl-1H-pyrazol-3-yl)amino)-5-methylpyrimidin-4-yl)-1H-indol-7-yl)isoindolin-1-one]	0.01 to 0.1 µM
Cc1cnc(Nc2cc(C)n(C)n2)nc1-c1c[nH]c2c(N3Cc4ccc(C#Cc5ccccc5)cc4C3=O)cccc12 [Example 355]	> 1 µM
Cc1cnc(Nc2cc(C)n(C)n2)nc1-c1c[nH]c2c(N3Cc4c(C#Cc5ccccc5)cccc4C3=O)cccc12 [Example 356, 2-(3-(2-((1,5-dimethyl-1H-pyrazol-3-yl)amino)-5-methylpyrimidin-4-yl)-1H-indol-7-yl)-4-(phenylethynyl)isoindolin-1-one]	0.1 to 1 µM

The remaining lines, values ahead:

IC50	Compound
0.01 to 0.1 µM	CC1=CCC(C(=O)Nc2cccc3c2CN(c2cccc4c(-c5nc(Nc6cc(C)n(C)n6)ncc5C)c[nH]c24)C3=O)CC1 (stereo not shown) [Example 330, N-(2-(3-(2-((1,5-dimethyl-1H-pyrazol-3-yl)amino)-5-methylpyrimidin-4-yl)-1H-indol-7-yl)-1-oxoisoindolin-4-yl)-4-methylcyclohex-3-ene-1-carboxamide]
< 0.01 µM	Cc1cnc(Nc2cc(C)n(C)n2)nc1-c1c[nH]c2c(N3Cc4c(NC(=O)[C@H]5C[C@H](N)CN5)cccc4C3=O)cccc12 [Example 331, (2R,4S)-4-amino-N-(2-(3-(2-((1,5-dimethyl-1H-pyrazol-3-yl)amino)-5-methylpyrimidin-4-yl)-1H-indol-7-yl)-1-oxoisoindolin-4-yl)pyrrolidine-2-carboxamide]
< 0.01 µM	Cc1cnc(Nc2cc(C)n(C)n2)nc1-c1c[nH]c2c(N3Cc4c(NC(=O)C5(C)CCCNC5)cccc4C3=O)cccc12 (stereo not shown) [Example 332, N-(2-(3-(2-((1,5-dimethyl-1H-pyrazol-3-yl)amino)-5-methylpyrimidin-4-yl)-1H-indol-7-yl)-1-oxoisoindolin-4-yl)-3-methylpiperidine-3-carboxamide]
< 0.01 µM	Cc1cnc(Nc2cc(C)n(C)n2)nc1-c1c[nH]c2c(N3Cc4c(NC(=O)[C@@H]5CCN(C)C5)cccc4C3=O)cccc12 [Example 333, (R)-N-(2-(3-(2-((1,5-dimethyl-1H-pyrazol-3-yl)amino)-5-methylpyrimidin-4-yl)-1H-indol-7-yl)-1-oxoisoindolin-4-yl)-1-methylpyrrolidine-3-carboxamide]
0.01 to 0.1 µM	Cc1cncc(C(=O)Nc2cccc3c2CN(c2cccc4c(-c5nc(Nc6cc(C)n(C)n6)ncc5C)c[nH]c24)C3=O)c1 [Example 334, N-(2-(3-(2-((1,5-dimethyl-1H-pyrazol-3-yl)amino)-5-methylpyrimidin-4-yl)-1H-indol-7-yl)-1-oxoisoindolin-4-yl)-5-methylnicotinamide]
< 0.01 µM	Cc1cnc(Nc2cc(C)n(C)n2)nc1-c1c[nH]c2c(N3Cc4c(NC(=O)CN(C)C)cccc4C3=O)cccc12 [Example 335, N-(2-(3-(2-((1,5-dimethyl-1H-pyrazol-3-yl)amino)-5-methylpyrimidin-4-yl)-1H-indol-7-yl)-1-oxoisoindolin-4-yl)-2-(dimethylamino)acetamide]
0.01 to 0.1 µM	Cc1cnc(Nc2cc(C)n(C)n2)nc1-c1c[nH]c2c(N3Cc4c(NC(=O)C5CCCC5)cccc4C3=O)cccc12 [Example 336, N-(2-(3-(2-((1,5-dimethyl-1H-pyrazol-3-yl)amino)-5-methylpyrimidin-4-yl)-1H-indol-7-yl)-1-oxoisoindolin-4-yl)cyclopentanecarboxamide]
< 0.01 µM	Cc1cnc(Nc2cc(C)n(C)n2)nc1-c1c[nH]c2c(N3Cc4c(NC(=O)C5CCOCC5)cccc4C3=O)cccc12 [Example 337, N-(2-(3-(2-((1,5-dimethyl-1H-pyrazol-3-yl)amino)-5-methylpyrimidin-4-yl)-1H-indol-7-yl)-1-oxoisoindolin-4-yl)tetrahydro-2H-pyran-4-carboxamide]
0.01 to 0.1 µM	Cc1cnc(Nc2cc(C)n(C)n2)nc1-c1c[nH]c2c(N3Cc4c(NC(=O)c5ccoc5)cccc4C3=O)cccc12 [Example 338, N-(2-(3-(2-((1,5-dimethyl-1H-pyrazol-3-yl)amino)-5-methylpyrimidin-4-yl)-1H-indol-7-yl)-1-oxoisoindolin-4-yl)furan-3-carboxamide]
< 0.01 µM	Cc1cnc(Nc2cc(C)n(C)n2)nc1-c1c[nH]c2c(N3Cc4c(NC(=O)c5cc(O)ncn5)cccc4C3=O)cccc12 [Example 339, N-(2-(3-(2-((1,5-dimethyl-1H-pyrazol-3-yl)amino)-5-methylpyrimidin-4-yl)-1H-indol-7-yl)-1-oxoisoindolin-4-yl)-6-hydroxypyrimidine-4-carboxamide]
< 0.01 µM	Cc1cnc(Nc2cc(C)n(C)n2)nc1-c1c[nH]c2c(N3Cc4c(NS(=O)(=O)c5ccccc5)cccc4C3=O)cccc12 [Example 341, N-(2-(3-(2-((1,5-dimethyl-1H-pyrazol-3-yl)amino)-5-methylpyrimidin-4-yl)-1H-indol-7-yl)-1-oxoisoindolin-4-yl)benzenesulfonamide]
< 0.01 µM	Cc1cnc(Nc2cc(C)n(C)n2)nc1-c1c[nH]c2c(N3Cc4c(NS(C)(=O)=O)cccc4C3=O)cccc12 [Example 342, N-(2-(3-(2-((1,5-dimethyl-1H-pyrazol-3-yl)amino)-5-methylpyrimidin-4-yl)-1H-indol-7-yl)-1-oxoisoindolin-4-yl)methanesulfonamide]
0.01 to 0.1 µM	Cc1ccc(S(=O)(=O)Nc2cccc3c2CN(c2cccc4c(-c5nc(Nc6cc(C)n(C)n6)ncc5C)c[nH]c24)C3=O)cc1 [Example 343, N-(2-(3-(2-((1,5-dimethyl-1H-pyrazol-3-yl)amino)-5-methylpyrimidin-4-yl)-1H-indol-7-yl)-1-oxoisoindolin-4-yl)-4-methylbenzenesulfonamide]
< 0.01 µM	Cc1cnc(Nc2cc(C)n(C)n2)nc1-c1c[nH]c2c(N3Cc4c(NS(=O)(=O)C(C)C)cccc4C3=O)cccc12 [Example 344, N-(2-(3-(2-((1,5-dimethyl-1H-pyrazol-3-yl)amino)-5-methylpyrimidin-4-yl)-1H-indol-7-yl)-1-oxoisoindolin-4-yl)propane-2-sulfonamide]
0.01 to 0.1 µM	Cc1cc(S(=O)(=O)Nc2cccc3c2CN(c2cccc4c(-c5nc(Nc6cc(C)n(C)n6)ncc5C)c[nH]c24)C3=O)ccc1F [Example 345, N-(2-(3-(2-((1,5-dimethyl-1H-pyrazol-3-yl)amino)-5-methylpyrimidin-4-yl)-1H-indol-7-yl)-1-oxoisoindolin-4-yl)-4-fluoro-3-methylbenzenesulfonamide]
0.01 to 0.1 µM	Cc1cnc(Nc2cc(C)n(C)n2)nc1-c1c[nH]c2c(N3Cc4cccc(N5CCOCC5)c4C3=O)cccc12 [Example 347, 2-(3-(2-((1,5-dimethyl-1H-pyrazol-3-yl)amino)-5-methylpyrimidin-4-yl)-1H-indol-7-yl)-7-morpholinoisoindolin-1-one]
< 0.01 µM	Cc1cnc(Nc2cc(C)n(C)n2)nc1-c1c[nH]c2c(N3Cc4c(cccc4N4CCOCC4)C3=O)cccc12 [Example 352, 2-(3-(2-((1,5-dimethyl-1H-pyrazol-3-yl)amino)-5-methylpyrimidin-4-yl)-1H-indol-7-yl)-4-morpholinoisoindolin-1-one]
